Assay results as given in ChEMBL document CHEMBL3739343, “Identification and activity of inhibitors of the essential nematode-specific metalloprotease DPY-31” (Bioorg Med Chem Lett, 2015).
The source made the active and inactive calls. No cut-off for these calls is given here. Where a SMILES comes first, the peptide text is derived from it.

Columns and labels:
[1] = target: T1, Zinc metalloproteinase dpy-31 (Brugia malayi, UniProt A8Q2D1); assay: Inhibition of recombinant Brugia malayi DPY-31 astacin domain expressed in Escherichia coli using Suc-Ala-Ala-Ala-pNA as substrate preincubated for 3 hrs followed by substrate addition measured after 3 hrs by microplate reader assay
T1 sequence (A8Q2D1 whole entry): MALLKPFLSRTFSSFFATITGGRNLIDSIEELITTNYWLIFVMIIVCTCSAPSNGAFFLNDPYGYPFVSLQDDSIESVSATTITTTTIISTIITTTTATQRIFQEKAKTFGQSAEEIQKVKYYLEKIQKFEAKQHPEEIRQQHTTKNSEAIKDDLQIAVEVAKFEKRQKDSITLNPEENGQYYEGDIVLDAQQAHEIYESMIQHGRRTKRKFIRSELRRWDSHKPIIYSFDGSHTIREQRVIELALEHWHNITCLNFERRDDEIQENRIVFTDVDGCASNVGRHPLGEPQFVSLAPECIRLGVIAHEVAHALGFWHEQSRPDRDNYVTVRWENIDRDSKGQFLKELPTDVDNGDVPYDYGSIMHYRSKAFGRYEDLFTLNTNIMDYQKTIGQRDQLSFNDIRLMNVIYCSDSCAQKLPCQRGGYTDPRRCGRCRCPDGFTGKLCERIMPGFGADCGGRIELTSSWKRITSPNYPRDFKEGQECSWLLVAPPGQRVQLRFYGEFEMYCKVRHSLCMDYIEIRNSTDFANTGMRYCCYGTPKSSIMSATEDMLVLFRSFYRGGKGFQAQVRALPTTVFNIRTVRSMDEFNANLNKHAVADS

[2] = target: T2, Zinc metalloproteinase dpy-31 (Teladorsagia circumcincta, UniProt A0A0C5PRQ1); assay: Inhibition of recombinant Teladorsagia circumcincta DPY-31 astacin domain expressed in Escherichia coli using Suc-Ala-Ala-Ala-pNA as substrate preincubated for 3 hrs followed by substrate addition measured after 3 hrs by microplate reader assay
T2 sequence (A0A0C5PRQ1 whole entry): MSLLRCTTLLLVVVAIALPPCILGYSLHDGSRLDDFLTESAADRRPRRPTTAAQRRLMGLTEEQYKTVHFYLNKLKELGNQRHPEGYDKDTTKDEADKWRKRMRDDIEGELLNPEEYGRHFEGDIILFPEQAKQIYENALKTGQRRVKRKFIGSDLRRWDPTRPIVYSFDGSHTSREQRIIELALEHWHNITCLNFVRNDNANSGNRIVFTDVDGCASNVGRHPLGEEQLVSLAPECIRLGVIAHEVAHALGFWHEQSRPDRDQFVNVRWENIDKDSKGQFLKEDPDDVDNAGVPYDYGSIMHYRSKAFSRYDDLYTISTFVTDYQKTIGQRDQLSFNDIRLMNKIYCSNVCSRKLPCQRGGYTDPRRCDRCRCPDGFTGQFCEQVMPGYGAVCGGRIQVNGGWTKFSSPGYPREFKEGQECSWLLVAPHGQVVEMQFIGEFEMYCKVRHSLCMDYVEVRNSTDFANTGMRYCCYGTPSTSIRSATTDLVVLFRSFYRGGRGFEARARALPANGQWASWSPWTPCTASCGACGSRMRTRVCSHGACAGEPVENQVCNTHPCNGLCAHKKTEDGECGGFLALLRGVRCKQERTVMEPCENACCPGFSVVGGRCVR

[3] = tested on: Caenorhabditis elegans; assay: Antiparasitic activity against Teladorsagia circumcincta dpy-31 transgenically-rescued Caenorhabditis elegans dpy-31 mutant TP224 assessed as induction of Dpy phenotype at 100 uM after 3 days by microscopic analysis; format: functional, organism-based
[4] = tested on: Teladorsagia circumcincta; assay: Antiparasitic activity against Teladorsagia circumcincta L3 assessed as induction of Dpy phenotype at 500 uM after 3 days by microscopic analysis; format: functional, organism-based
[5] = tested on: Caenorhabditis elegans; assay: Antiparasitic activity against wild type Caenorhabditis elegans N2 assessed as induction of Dpy phenotype at 50 uM measured after 3 days by microscopic analysis; format: functional, organism-based

SMILES: O=C(C[C@@H](CCCC1CCCCC1)c1nc(-c2cc(C(=O)O)ccn2)no1)NO
- IC50 ([1]; read-out: pIC50 (converted)): 20 µM
- IC50 [2]: 39.8 µM

SMILES: COC(=O)[C@@H]1CCCN1C(=O)[C@H](C)CP(=O)(O)[C@H](Cc1ccccc1)NC(=O)[C@H](CCCCN)NC(=O)[C@@H]1CCCN1C(=O)OCc1ccccc1
- IC50 ([1]; read-out: IC50): > 500 µM

SMILES: C[C@H](NC(=O)[C@@H]1CCCN1C(=O)OC(C)(C)C)C(=O)N[C@@H](Cc1ccccc1)C(=O)NO (HELM PEPTIDE1{[CC(C)(C)OC(=O)[*:2]].P.A.F.[ON[*:1]]}$$$$V2.0)
- Activity [3]: Active
- IC50 ([1]; read-out: pIC50 (converted)): 79.4 µM
- IC50 [2]: 25.1 µM
- Activity [4]: Active
- Activity [5]: Active

SMILES: C[C@H](NC(=O)[C@@H]1CCCN1C(=O)OCC1c2ccccc2-c2ccccc21)C(=O)N[C@@H](Cc1ccccc1)C(=O)NO (HELM PEPTIDE1{[O=C(OCC1c2ccccc2-c2ccccc21)[*:2]].P.A.F.[ON[*:1]]}$$$$V2.0)
- Activity [3]: Active
- IC50 ([1]; read-out: pIC50 (converted)): 25.1 µM
- IC50 [2]: 31.6 µM
- Activity [4]: Active
- Activity [5]: Active

SMILES: CNC(=O)[C@@H](NC(=O)[C@H](CC(C)C)[C@H](O)C(=O)NO)C(C)(C)C [MARIMASTAT]
- IC50 [2]: 79.4 µM
